Data on one compound can be found in patent US5389615A, “Peptides and pharmaceutical composition thereof in the treatment of pain” (British Technology Group Ltd., priority 1988, dated 1995).

Test [1] relates to hyperalgesia evoked by IL-1β. Put plainly: Modified Randall-Sellito rat paw pressure test, hyperalgesia evoked by IL-1β. To be noted: for DELTA REACTION TIME: 3h after IL-1β, control 23.9. In kind it is in vivo.
Description: The hyperalgesic activity of IL-1β was investigated by a modified Randall-Sellito rat paw pressure test (Ferreira et al, Eur. J. Pharacol. 53, 39-48, 1978).
The IL-1β was given either intraplantar (ipl, injection volume=0.1 ml) or intraperitoneally (ip, injection volume=0.3 ml).
The intensity of hyperalgesia was quantified as the variation of the reaction time (Δ reaction time, sec) obtained by subtracting the value measured 1,2,3 or 4h after administration of the hyperalgesic agent from the pre-injection control reaction time (zero time). The experimenter was unaware of the group treatments.
The vertical bars are standard errors of the means (s.e.m's) of values obtained in groups of 5 rats.
Each symbol or histogram represents the mean response of 5 animals per treatment group. Vertical bars are s.e.m's.
The data are means±s.e.m.'s of 5 animals per treatment group.
Each symbol represents the mean response of 5 animals per treatment group. Vertical bars are s.e.m.'s.
Treatments were given ip, lh before Il-1β, also given ip. There were 5 animals per treatment group.
Delta reaction time was measured 3h after Il-1β administration.
The Control was II-1β (0.05U), given ip.
In test [2] the test system is hyperalgesia evoked by PGE2. Put plainly: Rat paw pressure test, hyperalgesia evoked by PGE2. Type of test: in vivo. The note with it: for DELTA REACTION TIME: 3 h after PGE2, control 16.8.
For the next test, the system named is febrile rabbits. The note with it: Richards and Lipton, Peptides 5 (1984) 815-817; cited from earlier work.
The subject of test [3] is hyperalgesia evoked by DbcAMP. The test can be described thus: Rat paw pressure test, hyperalgesia evoked by DbcAMP. Type of test: in vivo. The note with it: 200 μg/150 g rat ip 1 h before DbcAMP (100 μg/paw) ipl.
Where [4] appears, read: 20 μg/150 g rat ip 1h before IL-1β (0.05U) ip.
The mark [5] stands for this setting: 50 μg/150 g rat ip 1h before IL-1β (0.05U) ip.
Setting [6] is: 100 μg/150 g rat ip 1h before IL-1β (0.05U) ip.
Where [7] appears, read: 200 μg/150 g rat ip 1h before IL-1β (0.05U) ip.
[8] abbreviates: 20 μg/150 g rat ip 1h before PGE2 ipl.
[9] abbreviates: 50 μg/150 g rat ip 1h before PGE2 ipl.
Where [10] appears, read: 100 μg/150 g rat ip 1h before PGE2 ipl.
[11] abbreviates: 200 μg/150 g rat ip 1h before PGE2 ipl.

Residues, ends and D or L forms follow the SMILES beside them.

As to `CC(C)[C@H](NC(=O)[C@@H]1CCCN1C(=O)[C@@H](N)CCCCN)C(=O)O` [KPV, Lys-Pro-Val] (H-Lys-Pro-Val-OH), the “% change of delta reaction time vs control (=100%)” value in test [1] (setting [4]) was -21.3%; in test [1] (setting [5]), -52.7%; in test [1] (setting [6]), -69.9%; in test [1] (setting [7]), -83.7%; in test [2] (setting [8]), -11.3%; in test [2] (setting [9]) it was -22.6%. Besides, the “% change of delta reaction time vs control (=100%)” value in test [2] (setting [10]) is -41.1%; in test [2] (setting [11]), -53.6%; in test [3], -8.1%. Also, the “DELTA REACTION TIME” value in test [1] (setting [4]) worked out at 18.8 ± 0.3 s; in test [1] (setting [5]), 11.3 ± 0.5 s; in test [1] (setting [6]), 7.2 ± 0.6 s; in test [1] (setting [7]) it was 3.9 ± 0.3 s; in test [2] (setting [8]) it was 14.9 ± 0.4 s; in test [2] (setting [9]), 13.0 ± 0.3 s. Further, the “DELTA REACTION TIME” value in test [2] (setting [10]) turned out to be 9.9 ± 0.2 s; in test [2] (setting [11]) it was 7.8 ± 0.6 s; in test [3] (3 h after DbcAMP, control 17.2), 15.8 ± 0.3 s. Besides, the “ED50 antagonising IL-1β evoked hyperalgesia” value in test [1] (rats) is recorded as 70 μg/150 g rat. The “antagonism of hyperalgesia evoked by IL-1β” value in test [1] (rats, peptide given before IL-1β) is recorded as “more potent antagonists of I1-1β-evoked hyperalgesia than Lys-D-Pro-Thr”. For the same compound, the “ED50 antagonising PGE2 evoked hyperalgesia” value in test [2] (rats) is on record as “approximately 170 μg/150 g rat”. In test [2] (rats), the “antagonism of hyperalgesia evoked by PGE2” value is “antagonize hyperalgesia evoked by PGE2”. For the same compound, the antipyretic effect entry in the test on febrile rabbits is on record as “antipyretic effect”.
